Read-outs that look alike come from different tables or passages of the source.
System: nucleus of the cell
Assay type: cell-based
Details: peptide fused to GFP reporter

| Substance | localization of GFP reporter chimera in the cell | localization of GFP reporter chimera in the cell (listed as GFP-Ser179Glu mutant chimera) |
| --- | --- | --- |
| SEQ ID NO: 2 (MYRMKKKDEGEYDLGKKPIYKKAPTNEFYA; from the cytoplasmic domain of syndecan-4 position Ser179 mutated into Glu) | accumulation of the reporter was detected in the nuclei | nuclear accumulation |
| MYRMKKKDEGSYDL (MYRMKKKDEGSYDLGKKPIYKKAPTNEFYA; from the cytoplasmic domain of syndecan-4 Ser11 of the sequence equals position Ser179 of the full length protein) [SEQ ID NO: 1] | homogenously dispersed in the cells |  |
